Assay results published in ChEMBL document CHEMBL5154654, “Design, synthesis and biological evaluation of 7-((7H-pyrrolo[2,3-d]pyrimidin-4-yl)oxy)-2,3-dihydro-1H-inden-1-one derivatives as potent FAK inhibitors for the treatment of ovarian cancer” (Eur J Med Chem, 2022).
In brackets after ≈: the same amount, converted by molar mass.

Experiments:
[1] = molecular target: Focal adhesion kinase 1 (Homo sapiens, UniProt Q05397); assay: Inhibition of FAK (unknown origin) using Fluorescein-Poly GAT as substrate incubated for 30 mins and measured after 60 mins by Lanthascreen assay
[2] = Metabolic stability in human liver microsomes assessed as parent compound remaining incubated for 120 mins in presence of NADPH by LC-MS/MS analysis; format: ADME, Microsome; conditions: read-out: Stability
[3] = Metabolic stability in human liver microsomes assessed as intrinsic clearance incubated for 120 mins in presence of NADPH by LC-MS/MS analysis; format: ADME, Microsome; conditions: read-out: CLH
[4] = Metabolic stability in human liver microsomes assessed as half-life incubated for 120 mins in presence of NADPH by LC-MS/MS analysis; format: ADME, Microsome
[5] = Aqueous solubility of compound; format: physicochemical; conditions: aqueous (not further specified)

Focal adhesion kinase 1, sequence (Q05397 whole entry): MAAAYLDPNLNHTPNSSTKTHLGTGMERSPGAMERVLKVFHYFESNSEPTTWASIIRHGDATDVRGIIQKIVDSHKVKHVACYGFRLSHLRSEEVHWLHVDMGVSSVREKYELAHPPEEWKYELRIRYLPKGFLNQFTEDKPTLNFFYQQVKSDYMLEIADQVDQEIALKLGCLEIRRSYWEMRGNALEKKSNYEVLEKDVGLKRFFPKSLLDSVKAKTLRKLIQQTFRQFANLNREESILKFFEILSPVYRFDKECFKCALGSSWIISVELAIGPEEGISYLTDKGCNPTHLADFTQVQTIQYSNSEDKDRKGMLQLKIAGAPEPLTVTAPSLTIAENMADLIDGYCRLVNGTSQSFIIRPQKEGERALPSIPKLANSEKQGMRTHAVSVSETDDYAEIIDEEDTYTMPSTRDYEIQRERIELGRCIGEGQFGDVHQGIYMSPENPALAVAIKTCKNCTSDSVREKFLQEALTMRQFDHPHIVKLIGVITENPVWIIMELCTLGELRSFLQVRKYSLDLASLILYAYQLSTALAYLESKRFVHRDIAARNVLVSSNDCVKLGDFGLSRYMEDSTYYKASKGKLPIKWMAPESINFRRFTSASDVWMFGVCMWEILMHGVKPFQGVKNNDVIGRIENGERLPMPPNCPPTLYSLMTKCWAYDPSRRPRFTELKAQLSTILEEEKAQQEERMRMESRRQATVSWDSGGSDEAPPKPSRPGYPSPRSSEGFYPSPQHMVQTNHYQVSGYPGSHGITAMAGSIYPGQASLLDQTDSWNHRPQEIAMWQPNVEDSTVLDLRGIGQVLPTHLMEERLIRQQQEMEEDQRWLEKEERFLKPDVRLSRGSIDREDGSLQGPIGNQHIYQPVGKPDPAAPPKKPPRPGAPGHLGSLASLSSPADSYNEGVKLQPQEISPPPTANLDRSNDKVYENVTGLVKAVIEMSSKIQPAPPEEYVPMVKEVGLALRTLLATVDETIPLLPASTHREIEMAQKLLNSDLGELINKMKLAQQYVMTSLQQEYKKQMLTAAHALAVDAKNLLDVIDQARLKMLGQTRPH

IC50 [1] [nM] | Compound | other results
206 | Cc1cc(Nc2nc(Oc3cccc4c3C(=O)CC4)c3cc[nH]c3n2)n(C(C)C)n1 | 
20.6 | CN1CCN(c2ccc(Nc3nc(Oc4cccc5c4C(=O)CC5)c4cc[nH]c4n3)cc2C#N)CC1 | 
10.9 | COc1cc(C(=O)NC2CC2)ccc1Nc1nc(Oc2cccc3c2C(=O)CC3)c2cc[nH]c2n1 | 
4.8 | CN1CCN(c2ccc(Nc3nc(Oc4cccc5c4C(=O)CC5)c4cc[nH]c4n3)cc2Cl)CC1 | remaining at 2 h [2]: 15.7%; CLint scaled [3]: 18.7 mL/min/kg; half-life [4]: 0.775 h
5.64 | CN1CCN(c2ccc(Nc3nc(Oc4cccc5c4C(=O)CC5)c4cc[nH]c4n3)cc2F)CC1 | 
20.6 | O=C1NCc2cc(Nc3nc(Oc4cccc5c4C(=O)CC5)c4cc[nH]c4n3)ccc21 | 
4.2 | Cc1cc(Nc2nc(Oc3cccc4c3C(=O)CC4)c3cc[nH]c3n2)ccc1N1CCN(CC2CC2)CC1 | remaining at 2 h [2]: 15.3%; CLint scaled [3]: > 29 mL/min/kg; half-life [4]: < 0.5 h
1140 | COc1cc(N2CCOCC2)ccc1Nc1nc(Oc2cccc3c2C(=O)CC3)c2cc[nH]c2n1 | 
144 | COc1cc(N2CCC(N3CCN(C)CC3)CC2)ccc1Nc1nc(-n2ccc3ccccc32)c2cc[nH]c2n1 | 
945 | COc1cc(N2CCC(N3CCN(C)CC3)CC2)ccc1Nc1nc(Oc2cccc3c2C(=O)CC3)c2ccsc2n1 | 
10.5 | CN1CCN(c2ccc(Nc3nc(Oc4cccc5c4C(=O)CC5)c4cc[nH]c4n3)cc2)CC1 | 
2.47 | Cc1ccc(Oc2nc(Nc3ccc(N4CCC(N5CCN(C)CC5)CC4)cc3)nc3[nH]ccc23)c2c1CCC2=O | remaining at 2 h [2]: 41.5%; solubility [5]: 38 µg/mL (≈ 68.9 µM); CLint scaled [3]: 93 mL/min/kg; half-life [4]: 1.57 h
> 1000 | COc1cc(N2CCC(N3CCN(C)CC3)CC2)ccc1Nc1nc(Oc2cccc3c2C(=O)CC3)c2[nH]ccc2n1 | 
12.2 | O=C1CCc2cccc(Oc3nc(Nc4ccc(N5CCOCC5)cc4)nc4[nH]ccc34)c21 | 
3.86 | COc1cc(N2CCN(C)CC2)ccc1Nc1nc(Oc2cccc3c2C(=O)CC3)c2cc[nH]c2n1 | remaining at 2 h [2]: 62.7%; solubility [5]: 13.6 µg/mL (≈ 28.1 µM); CLint scaled [3]: 52 mL/min/kg; half-life [4]: > 2 h
110 | CN1CCN(c2ccc(Nc3nc(Oc4cccc5c4C(=O)CC5)c4sccc4n3)cc2)CC1 | 
9.6 | COc1cc(N2C[C@@H]3C[C@H]2CO3)ccc1Nc1nc(Oc2cccc3c2C(=O)CC3)c2cc[nH]c2n1 | 

Compound | IC50 [1] [nM] | other results
COc1cc(N2CCOCC2)ccc1Nc1nc(Oc2cccc3c2C(=O)CC3)c2ccsc2n1 | > 1000 | 
CN1CCN(c2ccc(Nc3nc(Oc4cccc5c4C(=O)CC5)c4ccccc4n3)cc2)CC1 | > 1000 | 
COc1cc(N2CCOCC2)ccc1Nc1nc(Oc2cccc3c2C(=O)CC3)c2[nH]ccc2n1 | > 1000 | 
O=C1CCc2cccc(Oc3nc(Nc4ccc(N5CCOCC5)cc4)nc4sccc34)c21 | > 1000 | 
COc1cc(N2CCN(C)CC2)ccc1Nc1nc(Oc2cccc3c2C(=O)CC3)c2[nH]ccc2n1 | > 1000 | 
O=C1CCc2cccc(Oc3nc(Nc4ccc(N5CCOCC5)cc4)nc4ccccc34)c21 | > 1000 | 
CN1CCN(c2ccc(Nc3nc(Oc4cccc5c4C(=O)CC5)c4[nH]ccc4n3)cc2)CC1 | > 1000 | 
